pKi: −log10 of the molar value.
How the values were obtained:
human recombinant ENPP1 [1] = molecular target: T1, human recombinant ENPP1 (Homo sapiens, UniProt P22413); test: ENPP1 assay with 2′,3′-cGAMP substrate (AMP-Glo); type: biochemical
T1 sequence (P22413 1-925): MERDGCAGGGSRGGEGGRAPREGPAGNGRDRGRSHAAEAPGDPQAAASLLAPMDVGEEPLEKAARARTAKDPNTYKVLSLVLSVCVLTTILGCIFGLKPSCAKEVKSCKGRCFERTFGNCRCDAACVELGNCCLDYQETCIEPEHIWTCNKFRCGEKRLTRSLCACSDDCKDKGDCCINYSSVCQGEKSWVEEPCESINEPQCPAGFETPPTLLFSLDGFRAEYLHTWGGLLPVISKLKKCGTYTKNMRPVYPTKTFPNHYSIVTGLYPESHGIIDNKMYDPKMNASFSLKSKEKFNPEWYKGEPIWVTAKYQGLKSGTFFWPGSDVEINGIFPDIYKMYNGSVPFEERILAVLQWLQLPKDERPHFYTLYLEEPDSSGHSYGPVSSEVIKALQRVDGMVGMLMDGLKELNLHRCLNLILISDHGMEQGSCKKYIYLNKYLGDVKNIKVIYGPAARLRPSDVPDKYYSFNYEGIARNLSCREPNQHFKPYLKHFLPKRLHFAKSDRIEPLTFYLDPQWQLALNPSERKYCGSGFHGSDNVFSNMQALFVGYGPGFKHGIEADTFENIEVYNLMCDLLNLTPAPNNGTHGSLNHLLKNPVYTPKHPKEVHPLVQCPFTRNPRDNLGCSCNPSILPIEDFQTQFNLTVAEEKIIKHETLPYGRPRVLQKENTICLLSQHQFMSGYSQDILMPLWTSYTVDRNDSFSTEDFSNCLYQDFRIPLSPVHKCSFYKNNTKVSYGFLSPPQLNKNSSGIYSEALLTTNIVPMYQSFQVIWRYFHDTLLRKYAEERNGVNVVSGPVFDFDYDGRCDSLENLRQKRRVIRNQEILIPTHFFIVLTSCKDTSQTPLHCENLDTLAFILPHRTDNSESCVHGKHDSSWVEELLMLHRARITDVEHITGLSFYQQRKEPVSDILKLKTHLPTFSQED
Experimental: The AMP-Glo™ Assay Kit contains two reagents that are added sequentially. The first converts the 5′-AMP produced in the reaction to 5′ADP. The second converts the 5′-ADP to 5′ATP and reacts the 5′-ATP with the luciferase/luciferin pair to produce the luminescence signal. […] Inhibitors are added at final concentrations ranging between 10 μM and 30 pM depending on the compound. Duplicate wells are run at each inhibitor concentration. The final assay volume is 18 μL and human recombinant ENPP1 is present at 5 ng/well. The assay is initiated by the addition of substrate (20 μM 2′3′cGAMP final concentration), and incubated for 30 minutes at 37° C. To stop the reaction, 12 μl of AMP-Glo reagent I is added and the plate is incubated for 60 minutes at room temperature. 25 μl of AMP-detection reagent is then added and the wells are again incubated for 60 minutes at room temperature. The luminescence signal is then measured using a plate-reading luminometer. Each assay plate also includes wells with no enzyme added (MIN OD) and wells with no inhibitor added (MAX OD). The percent inhibition of ENPP1 for each sample is then calculated as: […]
(§1) IC50 values of compounds were calculated by entering the percent inhibition values into a sigmoidal variable slope nonlinear regression model in GraphPad Prism® software. IC50 values were converted to Ki values using the Cheng-Prusoff equation2 where the Km was 15 μM, based on internal determinations.

THP-1 cells = test: PDE inhibitors library screen on cGAMP activated THP-1 cells, IFNβ ELISA; type: cell-based, human; conditions: THP-1 cells activated with 2′,3′-cGAMP; test compound 10 μM; 24 hours; FIG. 3A-3C
Experimental: THP-1 Cell Activation and Screening of Test Compounds: • (a) THP-1 cells from bulk cultures were counted and suspended in RPMI 1640, 20% FBS, 2.5 mM L-alanyl-L-glutamine at a concentration of 5.5×10^6 cells/mL. The THP-1 cells were subsequently seeded into 96 well round bottom plates—volume of 180 μL/well (1×10^6 cells per well), and the plate was incubated for 1 hour at 37° C., 5% CO2. • (b) Test compounds comprising known phosphodiesterase inhibitors (PDEs), were screened in triplicate (N1, N2, N3) on THP-1 cells. For compound screening, test compounds were assayed at a final concentration of 10 μM. A 200 μM (0.2 mM) working solution of each compound was prepared by diluting 10 mM DMSO stock solutions of each compound in media at a dilution of 50:1 (1640, 20% FBS, 2.5 mM L-alanyl-L-glutamine). […] Cell culture supernatants were then transferred to a clean plate and stored at −80° C. until ready to analyze for IFNβ levels. • (j) IFNβ levels in cell culture supernatants were determined by ELISA according to the manufacturer's instructions (VeriKine Human IFNβ Assay). • (k) The interpolated data was normalized to vehicle control, or unstimulated control, and analyzed.

human recombinant ENPP1 [2] = molecular target: T1, human recombinant ENPP1; test: ENPP1 assay with AMP-pNP substrate (ATP analog), absorbance at 405 nm; type: biochemical; conditions: read-out: ENPP1 inhibition Ki, AMP-pNP Substrate
Experimental: ENPP1 is an ectonucleotidase that hydrolyzes both the STING activator 2′,3′-cGAMP and 5′ATP (ATP). In some instances, an inhibitor of ENPP-1 is capable of selectively blocking the hydrolysis of 2′,3′-cGAMP while only minimally inhibiting the hydrolysis of ATP. […] The ENPP1 assay with AMP-pNP substrate is conducted in a buffer containing 50 mM Tris-HCl (pH 8.5)/250 mM NaCl/0.5 mM CaCl2/1 μM ZnCl2/0.1% DMSO. Inhibitors are added at final concentrations ranging between 10 μM and 30 pM depending on the compound. Duplicate wells are run at each inhibitor concentration. The final assay volume is 40 μL and human recombinant ENPP1 is present at 60 ng/well. The assay is initiated by the addition of substrate (300 μM AMP-pNP final concentration), and incubated for 20 minutes at 37° C. The absorbance at 405 nm is then read in a Tecan® plate reader. Each assay plate also includes wells with no enzyme added (MIN OD) and wells with no inhibitor added (MAX OD). The percent inhibition of ENPP1 for each sample is then calculated as: […]
as §1, with “equation,” for “equation2”, “151” for “15”, “determinations” for “determinations.”

COc1cc2ncnc(N3CCC4(CC3)CN(S(C)(=O)=O)C4)c2cc1OC [Compound 24]
Substrate Selectivity Ki Ratio AMP-pNP/2′3′cGAMP (human recombinant ENPP1 [1]; Ki (AMP-pNP)/Ki (2′3′-cGAMP)): 18.7

COc1cc2nc(-c3ccccc3)nc(N3CCC(CCNS(N)(=O)=O)CC3)c2cc1OC [Compound 23]
Substrate Selectivity Ki Ratio AMP-pNP/2′3′cGAMP (human recombinant ENPP1 [1]; Ki (AMP-pNP)/Ki (2′3′-cGAMP)): >23.9

O=c1cc(-c2ccc(O)c(O)c2)oc2cc(O)cc(O)c12 [Compound 1]
inhibition at 1 µM (human recombinant ENPP1 [1]; at 1 μM compound, AMP-GLO method, read-out: Inhibition of ENPP1 with cGAMP as the Substrate): 76% | inhibition at 10 µM (human recombinant ENPP1 [1]; at 10 μM compound, AMP-GLO method, read-out: Inhibition of ENPP1 with cGAMP as the Substrate): 99% | cGAMP mediated IFNβ production (THP-1 cells): augmentation of cGAMP mediated IFNβ production

COc1cc2ncc(C#N)c(N3CCC(CCNS(C)(=O)=O)CC3)c2cc1OC [Compound 7]
Substrate Selectivity Ki Ratio AMP-pNP/2′3′cGAMP (human recombinant ENPP1 [1]; Ki (AMP-pNP)/Ki (2′3′-cGAMP)): 244

COc1cc2ncnc(-c3ccc(CNS(N)(=O)=O)cc3)c2cc1OC [Compound 17]
Substrate Selectivity Ki Ratio AMP-pNP/2′3′cGAMP (human recombinant ENPP1 [1]; Ki (AMP-pNP)/Ki (2′3′-cGAMP)): 48.3

COc1cc2ncnc(-c3ccc4c(c3)CN(S(N)(=O)=O)CC4)c2cc1OC [Compound 21]
Substrate Selectivity Ki Ratio AMP-pNP/2′3′cGAMP (human recombinant ENPP1 [1]; Ki (AMP-pNP)/Ki (2′3′-cGAMP)): 36.2

CNc1nc(N2CCC(CCNS(N)(=O)=O)CC2)c2cc(OC)c(OC)cc2n1 [Compound 20]
Substrate Selectivity Ki Ratio AMP-pNP/2′3′cGAMP (human recombinant ENPP1 [1]; Ki (AMP-pNP)/Ki (2′3′-cGAMP)): >38.7

CCN(C)S(=O)(=O)NCCC1CCN(c2ncnc3cc(OC)c(OC)cc23)CC1 [Compound 12]
Substrate Selectivity Ki Ratio AMP-pNP/2′3′cGAMP (human recombinant ENPP1 [1]; Ki (AMP-pNP)/Ki (2′3′-cGAMP)): >89.0

COc1cc2ncnc(NCc3ccc(NS(N)(=O)=O)cc3)c2cc1OC [Compound 22]
Substrate Selectivity Ki Ratio AMP-pNP/2′3′cGAMP (human recombinant ENPP1 [1]; Ki (AMP-pNP)/Ki (2′3′-cGAMP)): 34.7

COc1cc2ncnc(N3CCC(CNS(N)(=O)=O)CC3)c2cc1OC [Compound 13]
Substrate Selectivity Ki Ratio AMP-pNP/2′3′cGAMP (human recombinant ENPP1 [1]; Ki (AMP-pNP)/Ki (2′3′-cGAMP)): 86.7

COc1cc2ncnc(N3CCC4(CC3)CCN(S(C)(=O)=O)C4)c2cc1OC [Compound 19]
Substrate Selectivity Ki Ratio AMP-pNP/2′3′cGAMP (human recombinant ENPP1 [1]; Ki (AMP-pNP)/Ki (2′3′-cGAMP)): 44.8

COc1cc2ncnc(N3CCC(CCN)CC3)c2cc1OC [Compound 5]
Substrate Selectivity Ki Ratio AMP-pNP/2′3′cGAMP (human recombinant ENPP1 [1]; Ki (AMP-pNP)/Ki (2′3′-cGAMP)): >642

CS(=O)(=O)N1CCc2ccc(-c3ncnc4ccccc34)cc2C1 [Compound 8]
Substrate Selectivity Ki Ratio AMP-pNP/2′3′cGAMP (human recombinant ENPP1 [1]; Ki (AMP-pNP)/Ki (2′3′-cGAMP)): >158

COc1cc2nccc(Oc3ccc(NS(=O)(=O)c4ccccc4)cc3)c2cc1OC [Compound 25]
Substrate Selectivity Ki Ratio AMP-pNP/2′3′cGAMP (human recombinant ENPP1 [1]; Ki (AMP-pNP)/Ki (2′3′-cGAMP)): >6.80 | selectivity for inhibition of cGAMP over AMP-pNP hydrolysis by ENPP1 (human recombinant ENPP1 [1]; Ki (AMP-pNP)/Ki (2′3′-cGAMP)): ~6.8 fold

COc1cc2ccc(=O)n(Cc3ccc(NS(N)(=O)=O)cc3)c2cc1OC [Compound 10]
Substrate Selectivity Ki Ratio AMP-pNP/2′3′cGAMP (human recombinant ENPP1 [1]; Ki (AMP-pNP)/Ki (2′3′-cGAMP)): >127 | pKi (human recombinant ENPP1 [1]; read-out: ENPP1 inhibition Ki, cGAMP Substrate): 6.63 | pKi (human recombinant ENPP1 [2]): < 4.52

CN1CNc2ncnc(N3CCC(CCNS(C)(=O)=O)CC3)c21 [Compound 9]
Substrate Selectivity Ki Ratio AMP-pNP/2′3′cGAMP (human recombinant ENPP1 [1]; Ki (AMP-pNP)/Ki (2′3′-cGAMP)): >128

COc1cc2ncnc(N3CCN(C(=O)CNS(N)(=O)=O)CC3)c2cc1OC [Compound 15]
Substrate Selectivity Ki Ratio AMP-pNP/2′3′cGAMP (human recombinant ENPP1 [1]; Ki (AMP-pNP)/Ki (2′3′-cGAMP)): 57.3

COc1cc2nc(N)nc(N3CCC(CCNS(N)(=O)=O)CC3)c2cc1OC [Compound 18]
Substrate Selectivity Ki Ratio AMP-pNP/2′3′cGAMP (human recombinant ENPP1 [1]; Ki (AMP-pNP)/Ki (2′3′-cGAMP)): 47.7

— patent US20200085782A1, “COMPOSITIONS AND METHODS OF ENHANCING OR AUGMENTING TYPE I IFN PRODUCTION” (Mavupharma, Inc., priority 2016, published 2020)
